Data from the supplement of paper PMC10307832.

Experiments:
Test in all cases: relative viability (nuclei count vs DMSO), 5 days (fraction); higher = more cells survive
TPCA-1 + Bortezomib = compound: C1=CC(=CC=C1C2=CC(=C(S2)NC(=O)N)C(=O)N)F [TPCA-1] + CC(C)C[C@H](NC(=O)[C@H](Cc1ccccc1)NC(=O)c1cnccn1)B(O)O [Bortezomib] (partner 0.002 µM)
Summary of the method: (§1)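 Dosing by pin tool came one day after lung cancer cell lines were seeded in 1536-well plates, using either one drug or a fixed anchor-drug dose plus five library-drug doses (not always all listed) in √10 steps. After 5 days, nuclei were counted on 4× images. Relative viability is treated-well nuclei count divided by vehicle-well nuclei count, and values are medians of duplicate plates.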

TPCA-1 + Tozasertib = compound: C1=CC(=CC=C1C2=CC(=C(S2)NC(=O)N)C(=O)N)F [TPCA-1] + Cc1cc(Nc2cc(N3CCN(C)CC3)nc(Sc3ccc(NC(=O)C4CC4)cc3)n2)n[nH]1 [Tozasertib] (partner 0.1 µM)
Summary of the method: as §1

[1] = compound: C[C@]12O[C@H](C[C@]1(O)CO)n1c3ccccc3c3c4c(c5c6ccccc6n2c5c31)CNC4=O [Lestaurtinib] + CC1(C)CCC(c2ccc(Cl)cc2)=C(CN2CCN(c3ccc(C(=O)NS(=O)(=O)c4ccc(N[C@H](CCN5CCOCC5)CSc5ccccc5)c(S(=O)(=O)C(F)(F)F)c4)cc3)CC2)C1 [Navitoclax] (partner 0.5 µM)
Summary of the method: as §1

[2] = compound: C[C@]12O[C@H](C[C@]1(O)CO)n1c3ccccc3c3c4c(c5c6ccccc6n2c5c31)CNC4=O [Lestaurtinib] + Nc1nc2[nH]cc(CCc3ccc(C(=O)N[C@@H](CCC(=O)O)C(=O)O)cc3)c2c(=O)[nH]1 [Pemetrexed] (partner 0.2 µM)
Summary of the method: as §1

Cell Line	relative viability (TPCA-1 + Bortezomib; first compound 0.04 µM)	relative viability (TPCA-1 + Bortezomib; first compound 0.1265 µM)	relative viability (TPCA-1 + Bortezomib; first compound 0.4 µM)	relative viability (TPCA-1 + Bortezomib; first compound 1.265 µM)	relative viability (TPCA-1 + Bortezomib; first compound 4 µM)	relative viability (TPCA-1 + Tozasertib; first compound 0.04 µM)	relative viability (TPCA-1 + Tozasertib; first compound 0.1265 µM)	relative viability (TPCA-1 + Tozasertib; first compound 0.4 µM)	relative viability (TPCA-1 + Tozasertib; first compound 1.265 µM)	relative viability (TPCA-1 + Tozasertib; first compound 4 µM)	relative viability ([1]; first compound 0.005 µM)	relative viability ([1]; first compound 0.01581 µM)	relative viability ([1]; first compound 0.05 µM)	relative viability ([1]; first compound 0.1581 µM)	relative viability ([1]; first compound 0.5 µM)	relative viability ([2]; first compound 0.005 µM)	relative viability ([2]; first compound 0.01581 µM)	relative viability ([2]; first compound 0.05 µM)	relative viability ([2]; first compound 0.1581 µM)	relative viability ([2]; first compound 0.5 µM)
NCI-H1355	1.25	1.09	1.15	1.01	0.984	0.595	0.574	0.597	0.461	0.254	0.908	0.889	0.73	0.457	0.459	1.1	1.08	0.928	0.754	0.607
NCI-H1666	0.808	0.807	0.996	0.767	0.8	0.627	0.598	0.635	0.543	0.461	1.18	1.05	1.08	0.581	0.355	0.988	0.92	0.948	0.95	0.707
EPLC-272H	0.96	0.974	0.962	0.87	0.821	0.652	0.277	0.31	0.442	0.251	1.29	0.924	0.6	0.643	0.689	0.308	0.349	0.452	0.189	0.0958
ChaGo-K-1	0.83	0.995	1.11	0.903	0.377	0.232	0.237	0.251	0.226	0.207	1.03	1.59	0.962	0.603	0.497	0.267	0.268	0.261	0.249	0.205
NCI-H1651	0.909	0.927	0.917	0.891	0.649	0.678	0.646	0.794	0.652	0.521	1.12	1.12	0.79	1.05	0.471	0.534	0.722	0.571	0.615	0.388
HCC-44	0.903	0.789	0.908	0.745	0.883	1.07	0.937	0.889	–	0.294	0.88	1.06	0.925	1.12	0.62	0.635	0.685	0.491	0.648	0.377
SW 1573	1.07	1.19	1.1	1.11	0.834	0.189	0.162	0.181	0.132	0.135	1.14	1.01	0.851	0.699	0.68	1.03	0.86	0.666	0.303	0.119
